{"source": "paper PMC11187126", "about": "“Structure and dynamics of the pyroglutamylated RF-amide peptide QRFP receptor GPR103” (Nature Communications, 2024)", "target": "T1, GPR103 Y29N-termA (Homo sapiens, UniProt Q96P65, Y29A)", "T1 construct": "we used human full-length QRFPR-encoding plasmids; expressed in transfected cells; host or cells: HEK293 cells, pCAGGS vector", "T1 sequence (Q96P65 1-431 Y29A)": "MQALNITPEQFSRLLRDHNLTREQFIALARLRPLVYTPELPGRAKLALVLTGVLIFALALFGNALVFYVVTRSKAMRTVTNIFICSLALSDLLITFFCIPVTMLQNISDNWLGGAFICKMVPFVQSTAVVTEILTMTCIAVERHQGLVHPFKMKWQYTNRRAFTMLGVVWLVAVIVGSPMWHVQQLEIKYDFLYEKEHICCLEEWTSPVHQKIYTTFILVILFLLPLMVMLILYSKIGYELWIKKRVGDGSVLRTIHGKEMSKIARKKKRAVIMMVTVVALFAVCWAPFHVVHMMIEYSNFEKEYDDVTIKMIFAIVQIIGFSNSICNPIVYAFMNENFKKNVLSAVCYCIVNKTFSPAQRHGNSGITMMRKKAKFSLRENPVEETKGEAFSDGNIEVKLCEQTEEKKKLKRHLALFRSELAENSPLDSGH", "assay": "TGFα shedding assay; Exp. level WT (1:20)", "assay_type": "cell-based", "description": "For the TGFα shedding assay and the flow cytometry analysis, we used human full-length QRFPR-encoding plasmids. Specifically, GPR103 was N-terminally modified with an HA signal sequence followed by a FLAG epitope and then a flexible linker ([…]; the FLAG epitope is underlined) and inserted into the pCAGGS vector. Plasmid encoding GPR103 mutants were generated using Quickchange Site-Directed Mutagensis kit (Agilent).\nThe TGFα shedding assay was performed as described previously with minor modifications. Plasmid transfection was performed in a 6-well plate with a mixture of 500 ng (per well in a 6-well plate) AP-TGFα-encoding plasmid and 200 ng GPR103-encoding plasmid. After 1-day culture, the transfected cells were harvested by trypsinization, pelleted by centrifugation at 190 × g for 5 min, and washed once with 5 mM HEPES (pH 7.4)-containing Hank’s Balanced Salt Solution (HBSS). After centrifugation, the cells were resuspended in 8 mL of the HEPES-containing HBSS. The cell suspension was seeded in a 96-well culture plate (cell plate) at a volume of 90 μL (per well hereafter) and incubated in a 37 °C incubator with 5% CO2 for 30 min. […] After spinning the cell plates at 190 × g for 2 min, 80 μL of conditioned media was transferred to an empty 96-well plate (conditioned media (CM) plate). Then, 80 μL of AP reaction solution (10 mM p-nitrophenylphosphate (p-NPP), 120 mM Tris-HCl (pH 9.5), 40 mM NaCl, and 10 mM MgCl2) was dispensed into the cell plates and the CM plates. Absorbance at 405 nm of the plates was measured using a microplate reader (SpectraMax 340 PC384, Molecular Devices) before and after 1-h incubation at room temperature. Ligand-induced AP-TGFα release was calculated by subtracting spontaneous AP-TGFα release signal from ligand-induced AP-TGFα release signal. The AP-TGFα release signals were fitted to a four-parameter sigmoidal concentration–response curve, using the Prism 10 software (GraphPad Prism). For each replicate experiment, the pEC50 parameter (negative logarithmic values of EC50 values) of the individual GPR103 mutants were normalized to that of the wild-type GPR103 performed in parallel, and resulting ∆pEC50 values were used to denote ligand response activity of the mutants. […]\nExp. le vel: WT (1:5 0)Exp. le vel: WT (1:5 0)Exp. le vel: WT (1:5 0)Exp. le vel: WT (1:2 0)Exp. le vel: WT (1:2 0)Exp. le vel: WT (1:1 0) […]\nL1 4N - t e r mA F2 5N - t e r mA I 2 6N - t e r mA Y 2 9N - t e r mA C 9 82 .5 7A T10 22 .6 1A Exp . l eve l: WT (1 :5)Exp . l evel : >WT (1 :1)Exp. le vel: WT (1:2 0)Exp. le vel: WT (1:2 0)Exp. le vel: WT (1:5 0)Exp . l eve l: WT (1 :1) […]\nExp. le vel: WT (1:1 0)Exp. le vel: WT (1:2 0) C 1 1 83 .2 5AExp. le vel: WT (1:5 0)Exp. le vel: WT (1:5 0)Exp. le vel: WT (1:2 0)Exp . l eve l: WT (1 :5) […]\nExp. le vel: WT (1:5 0)Exp. le vel: WT (1:1 0)Exp. le vel: WT (1:5 0) E203ECL2AExp . l evel : >WT (1 :1)Exp. le vel: WT (1:5 0)Exp. le vel: WT (1:5 0) […]\nExp . l eve l: WT (1 :1) F28Exp. le vel: WT (1:5 0) C 2 8 56 .4 7AExp. le vel: WT (1:2 0) WExp. le vel: WT (1:2 0) F28Exp. le vel: WT (1:5 0)Exp . l evel : >WT (1 :1) […]\nExp. le vel: WT (1:5 0)Exp. le vel: WT (1:5 0) C 3 2 77 .4 8AExp . l eve l: WT (1 :5)Exp . l evel : >WT (1 :1)Exp . l evel : >WT (1 :1) […]\nSuppl eme nt ary Figure 1 | Mutational analysis of GPR103. […]\nmutants. Data are presented as mean values ± SEM, normally n=3-5; dots), each performed in triplicate. b-d Cell-surface expression (b) and QRFP26-in-duced activation of GPR103 (c, d) were analyzed by the flow cytometry and the TGFα shedding assay, respectively. From the concentration–response curves (a), Emax (c) and ΔpEC50 (d) values relative to the wild type were calculated. Colors in the mutant bars indicate an expression level matching to that of titrated wild type. Statistical analyses were performed using the ordinary one-way ANOVA followed by Dunnett tests with the expression-matched […]", "note": "Where two headings read alike, the source gives them in different places. No end group written: not given here."}
{"substance": "TSGPLGNLAEELNGYSRKKGGFSFRF-NH2 [QRFP26]", "values": [{"measurement": "Emax", "setting": "Exp. #1", "value": 95.50, "unit": "% WT"}, {"measurement": "Emax", "setting": "Exp. #2", "value": 84.01, "unit": "% WT"}, {"measurement": "Emax", "setting": "Exp. #3", "value": 93.81, "unit": "% WT"}, {"measurement": "Emax", "setting": "mean, read-out: Emax", "value": 91.1, "unit": "%"}, {"measurement": "EC50", "setting": "n = 3", "value": 269, "unit": "nM"}, {"measurement": "Emax", "setting": "n = 3, read-out: Emax", "value": "94 ± 2.9", "unit": "%"}]}
